Experimental data: US20240108738A1, “BICYCLIC PEPTIDE LIGANDS SPECIFIC FOR NK CELLS” (Bicycle Tx Limited, priority 2021, published 2024)
Read-outs that look alike come from different tables or passages of the source. Numbered stars: 1 amine (or outer) side, 2 acyl side, 3 side chain; on linkers, the order of the positions; unused ones are H or OH. Bridge positions count the residues as written; N and C are the ends. Square brackets hold non-standard residues; d marks the D form. Peptide text beside a SMILES is read from it. TATA = O=C(CC[*:1])N1CN(C(=O)CC[*:2])CN(C(=O)CC[*:3])C1; X1 = C(c1nc(C[*:2])nc(C[*:3])n1)[*:1]

Tests used:
CD16a (V Variant) = CD16a (V Variant) (Homo sapiens, UniProt P08637, F176V); assay: FcγRIII (CD16a) SPR (Method A and/or Method B), V variant; type: binding
CD16a (F Variant) = CD16a (F Variant) (Homo sapiens, UniProt P08637); assay: FcγRIII (CD16a) SPR (Method A and/or Method B), F variant; type: binding
[1] = SPR Method A and/or B, Table 6B, read-out: Kd (nM) (V Variant)
[2] = SPR Method A and/or B, Table 6B, read-out: Kd (nM) (F Variant)

Chain of CD16a (V Variant) (P08637 17-208 F176V): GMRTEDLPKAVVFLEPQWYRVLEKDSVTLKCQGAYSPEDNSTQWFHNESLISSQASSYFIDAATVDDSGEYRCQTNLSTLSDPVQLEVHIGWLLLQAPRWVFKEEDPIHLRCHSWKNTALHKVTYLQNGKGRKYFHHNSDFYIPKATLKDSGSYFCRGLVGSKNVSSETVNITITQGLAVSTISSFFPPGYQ

Kd (CD16a (V Variant); [1]) | Kd (CD16a (F Variant); [2]) | Structure (SMILES) | Kd (CD16a (V Variant)) | also measured
3310 nM | 17100 nM | CC(C)C[C@@H]1NC(=O)[C@@H]2CCCN2C(=O)[C@H](Cc2c[nH]cn2)NC(=O)[C@@H]2CSCCC(=O)N3CN(CN(C3)C(=O)CCSC[C@H](NC(=O)[C@H](C)N)C(=O)N3CCC[C@H]3C(=O)N3CCC[C@H]3C(=O)N[C@@H](C)C(=O)N[C@@H](C(C)C)C(=O)N[C@@H](Cc3ccc(O)cc3)C(=O)N2)C(=O)CCSC[C@@H](C(=O)N[C@@H](C)C(N)=O)NC(=O)[C@H](CC(=O)O)NC1=O [BCY11673, A-(SEQ ID NO: 169)-A] (H-ACPPAVYCHPLDCA-NH2; linker 2-8-13 via TATA; C-terminus assumed) | – | –
4330 nM | 28600 nM | CC(C)C[C@@H]1NC(=O)[C@@H]2CCCN2C(=O)[C@H](Cc2c[nH]cn2)NC(=O)[C@@H]2CSCCC(=O)N3CN(CN(C3)C(=O)CCSC[C@H](NC(=O)[C@H](C)N)C(=O)N3CCC[C@H]3C(=O)N3CCC[C@H]3C(=O)N[C@@H](CCC(=O)O)C(=O)N[C@@H](C(C)C)C(=O)N[C@@H](Cc3ccccc3)C(=O)N2)C(=O)CCSC[C@@H](C(=O)N[C@@H](C)C(N)=O)NC(=O)[C@H](CC(=O)O)NC1=O [BCY11809, A-(SEQ ID NO: 170)-A] (H-ACPPEVFCHPLDCA-NH2; linker 2-8-13 via TATA; N-terminus and C-terminus assumed) | – | –
1900 nM | – | CC(C)C[C@@H]1NC(=O)[C@@H]2CCCN2C(=O)[C@H](Cc2c[nH]cn2)NC(=O)[C@@H]2CSCCC(=O)N3CN(CN(C3)C(=O)CCSC[C@H](NC(=O)[C@H](C)N)C(=O)N3CCC[C@H]3C(=O)N3CCC[C@H]3C(=O)N[C@@H]([C@@H](C)O)C(=O)N[C@@H](C(C)C)C(=O)N[C@@H](Cc3ccc(O)cc3)C(=O)N2)C(=O)CCSC[C@@H](C(=O)N[C@@H](C)C(=O)N(C)CC(=O)N(C)CC(=O)N(C)CC(=O)N(C)CC(=O)N(C)CC(=O)N(C)CC(=O)N[C@@H](CCCCNC(=O)CCCC[C@@H]2SC[C@@H]3NC(=O)N[C@@H]32)C(N)=O)NC(=O)[C@H](CC(=O)O)NC1=O [BCY12621, A-(SEQ ID NO: 60)-A-[Sar6]-[KBiot]] | – | –
– | – | CC(C)[C@@H]1NC(=O)[C@H](CO)NC(=O)[C@H](Cc2c[nH]c3ccccc23)NC(=O)[C@H](CCCNC(=N)N)NC(=O)[C@@H](NC(=O)[C@H](C)N)CSCc2nc3nc(n2)CSC[C@H](NC(=O)[C@@H]2CCCN2C(=O)[C@H](CC(=O)O)NC(=O)[C@H](CCC(=O)O)NC1=O)C(=O)N[C@H](C)C(=O)N[C@@H](C)C(=O)N[C@@H](Cc1c[nH]c2ccccc12)C(=O)N[C@H](C(=O)N[C@@H](C)C(N)=O)CSC3 [BCY14956, A-(SEQ ID NO: 178)-A] (H-ACRWSVEDPC[dA]AWCA-NH2; linker 2-10-14 via X1; N-terminus assumed) | 2150 nM | –
– | – | C[C@H](N)C(=O)N[C@H]1CSCc2nc3nc(n2)CSC[C@H](NC(=O)[C@@H]2CCCN2C(=O)[C@H](CCC(=O)O)NC(=O)[C@H](CO)NC(=O)[C@@H]2CCN2C(=O)[C@H](Cc2c[nH]cn2)NC(=O)[C@H](Cc2c[nH]c4ccccc24)NC(=O)[C@H](CCCNC(=N)N)NC1=O)C(=O)NCC(=O)N[C@@H](C)C(=O)N[C@@H](Cc1c[nH]c2ccccc12)C(=O)N[C@H](C(=O)N[C@@H](C)C(N)=O)CSC3 [BCY20382, A-(SEQ ID NO: 227)-A] | – | Kd (CD16a (F Variant)): 385 nM
– | – | C[C@H](N)C(=O)N[C@H]1CSCc2nc3nc(n2)CSC[C@H](NC(=O)[C@@H]2CCCN2C(=O)[C@H](CCC(=O)O)NC(=O)[C@H](CO)NC(=O)[C@H](Cc2ccccc2)NC(=O)[C@H](Cc2c[nH]cn2)NC(=O)[C@H](Cc2c[nH]c4ccccc24)NC(=O)[C@H](CCCNC(=N)N)NC1=O)C(=O)N[C@H](C)C(=O)N[C@@H](C)C(=O)N[C@@H](Cc1c[nH]c2ccccc12)C(=O)N[C@H](C(=O)N[C@@H](C)C(N)=O)CSC3 [BCY20392, A-(SEQ ID NO: 235)-A] (H-ACRWHFSEPC[dA]AWCA-NH2; linker 2-10-14 via X1; C-terminus assumed) | 385 nM | –
